The test deals with T1, xanthine oxidase (XO) (Bos taurus, UniProt P80457).
T1 construct: gene XDH
The test can be described thus: spectrophotometric xanthine oxidase assay, uric acid formation at […] nm (XO from Roche). In kind it is biochemical.

For orientation: IC50 means the point on the concentration scale where inhibition reaches its midpoint.

T1 sequence (P80457 2-1332): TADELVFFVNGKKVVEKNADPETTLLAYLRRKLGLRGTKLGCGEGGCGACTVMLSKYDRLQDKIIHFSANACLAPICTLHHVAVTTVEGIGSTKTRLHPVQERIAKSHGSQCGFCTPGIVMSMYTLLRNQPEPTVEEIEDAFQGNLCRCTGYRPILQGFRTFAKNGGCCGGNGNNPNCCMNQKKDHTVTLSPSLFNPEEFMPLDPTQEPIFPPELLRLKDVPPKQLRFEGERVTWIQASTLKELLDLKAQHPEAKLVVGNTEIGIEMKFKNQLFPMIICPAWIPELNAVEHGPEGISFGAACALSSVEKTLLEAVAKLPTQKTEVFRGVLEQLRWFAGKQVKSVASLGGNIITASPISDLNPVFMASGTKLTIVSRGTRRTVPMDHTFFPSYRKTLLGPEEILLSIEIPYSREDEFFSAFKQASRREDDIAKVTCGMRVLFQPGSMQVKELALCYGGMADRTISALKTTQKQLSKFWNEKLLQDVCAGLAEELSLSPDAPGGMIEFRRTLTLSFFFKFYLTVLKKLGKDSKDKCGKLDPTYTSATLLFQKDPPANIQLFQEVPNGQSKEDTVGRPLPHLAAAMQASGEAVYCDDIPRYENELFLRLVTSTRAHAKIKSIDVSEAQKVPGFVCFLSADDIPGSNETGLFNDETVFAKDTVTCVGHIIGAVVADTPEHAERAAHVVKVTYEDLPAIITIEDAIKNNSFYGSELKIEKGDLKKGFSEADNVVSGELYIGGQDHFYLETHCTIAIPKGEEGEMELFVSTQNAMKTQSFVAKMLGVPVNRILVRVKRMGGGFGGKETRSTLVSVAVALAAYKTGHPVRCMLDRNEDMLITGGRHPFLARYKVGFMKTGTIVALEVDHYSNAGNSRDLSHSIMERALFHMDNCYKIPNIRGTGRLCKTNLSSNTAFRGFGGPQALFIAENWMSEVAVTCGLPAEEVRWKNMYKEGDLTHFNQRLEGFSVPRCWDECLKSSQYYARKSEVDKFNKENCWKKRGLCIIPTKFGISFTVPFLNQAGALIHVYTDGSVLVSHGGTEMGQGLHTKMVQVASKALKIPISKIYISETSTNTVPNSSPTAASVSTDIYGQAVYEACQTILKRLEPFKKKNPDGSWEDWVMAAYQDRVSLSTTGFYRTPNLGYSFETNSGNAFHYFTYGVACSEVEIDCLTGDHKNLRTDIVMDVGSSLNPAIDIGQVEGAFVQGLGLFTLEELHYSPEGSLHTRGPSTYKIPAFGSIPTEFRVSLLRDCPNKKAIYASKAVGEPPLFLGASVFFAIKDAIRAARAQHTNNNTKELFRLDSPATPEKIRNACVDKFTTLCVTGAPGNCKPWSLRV

Consider `CC(C)C1=CC2=CC[C@@H]3[C@](C)(CCC[C@@]3(C)C(=O)O)[C@H]2CC1` [AA, abietic acid], for which the IC50 was 10.6 µM.

These data come from paper PMC10343225, “Investigating the Vital Role of the Identified Abietic Acid from Helianthus annuus L. Calathide Extract against Hyperuricemia via Human Embryonic Kidney 293T Cell Model” (Molecules, 2023).
